Melting point data for 120 compounds are collected here from a melting point compilation (Tetko et al.).

As a reminder, the melting point is the temperature of the solid-liquid transition.

`Nc1ccccc1-c1cc(F)c(F)c(F)c1` returned a melting point of 64 to 66 °C.
As for `CC(=O)c1ccc(Oc2ccc(Br)cc2)cc1`, the melting point was in the range of 79 to 81 °C.
Next, `N#CSCC(=O)c1ccccc1Cl`: 56 to 58 °C; `Cn1cc(Cl)cc1C(=O)NN`: 168 to 170 °C; `Nc1cc(Cl)ccc1Sc1ccccc1`: 62 to 64 °C.
Consider `Cn1cc(S(=O)(=O)N2CCOCC2)cc1C(=O)O`, for which the melting point is 245 to 247 °C.
Regarding `Cn1c(=O)c(CBr)nc2ccccc21`, the melting point is 179 to 181 °C.
The compound `CCCCc1ccc(-n2nnnc2S)cc1` had a melting point of 88 to 92 °C.
Next, `O=C1C=CC(=O)N1c1cccc2ccccc12`: 103 to 105 °C.
Next, `O=C(O)c1ccccc1NS(=O)(=O)c1cccc([N+](=O)[O-])c1`: 185 to 187 °C.
`COc1ccc(CC(N)c2ccc(OC)cc2)cc1` (stereo not given) came in with a melting point of 175 to 177 °C.
Next, `CC(=O)N(CCC#N)C(C)C`: 59 to 61 °C; `O=C(O)C1CCCN(S(=O)(=O)c2cccnc2)C1` (stereo not given): 214 to 216 °C.
In the case of `COc1cccc(-c2c[nH]cc2C(=O)O)c1`, the melting point fell in the range of 143 to 145 °C.
Take `CN1CCN(C(=O)c2ccc(N)cc2)CC1`: the melting point is 135 to 137 °C.
Compound `O=[N+]([O-])c1ccc(OCc2ccccc2)cc1` returned a melting point of 92 to 94 °C.
On to `Cc1cc(C)n(CCO)n1`, for which the melting point lay in the range of 74 to 76 °C.
Next, `NC(=O)C1CCCC(N)C1` (stereo not given): 132 to 134 °C; `COc1ccc2cc(C(C)C#N)ccc2c1` (stereo not given): 70 to 72 °C; `COC(=O)c1c(NC(=O)CCl)sc2c1CCC2`: 98 to 100 °C.
Consider `NCc1cc(=O)n2ccccc2n1`, for which the melting point was 123 to 125 °C.
Next, `O/N=C/c1c(Cl)nc(Cl)n1-c1ccccc1`: 179 to 181 °C; `CC(=O)NCc1ccc(S(=O)(=O)Cl)s1`: 80 to 82 °C.
Next, `CC(C)(C)OC(=O)N1CC2CNCC2C1` (stereo not given): 29 to 31 °C.
Next, `CN1C(=O)CCC(C(N)=O)C1c1cccc(Cl)c1` (stereo not given): 215 to 217 °C; `O=C(O)C1CCCn2c1n[nH]c2=O` (stereo not given): 121 to 123 °C.
As for `CCOC(=O)C(NS(=O)(=O)CC)C(=O)OCC`, the melting point lay in the range of 51 to 53 °C.
For `ClCc1nnnn1-c1ccccc1`, the melting point is 45 to 73 °C.
Turning to `O=C(O)c1cnn(Cc2ccccc2)c1`, the melting point fell in the range of 149 to 151 °C.
Next, `O=C(O)c1cccc(Oc2ccc(Cl)c(Cl)c2)n1`: 138 to 140 °C; `O=C(O)CCC(=O)c1cc(Cl)sc1Cl`: 117 to 119 °C.
Next, `Cc1cnc(-c2cccc(N)c2)o1`: 107 to 109 °C.
Next, `O=Cc1cnc2ccc(Br)cn12`: 162 to 164 °C; `CNc1ccc(Br)cc1[N+](=O)[O-]`: 101 to 103 °C; `Cc1cc(-n2nccc2N)ncn1`: 59 to 61 °C.
For the compound `O=C(O)COc1cccc(Oc2ccccn2)c1`, the melting point was 124 to 126 °C.
Next, `CS(=O)(=O)Nc1cc(N)ccc1F`: 154 to 156 °C; `Cc1ccc(N)c(-c2nc(C3CC3)n[nH]2)c1`: 205 to 207 °C; `NS(=O)(=O)c1ccc(C(=O)O)s1`: 229 to 231 °C.
Turning to `NNS(=O)(=O)Cc1ccccc1`, the melting point was in the range of 131 to 133 °C.
Next, `CC1CC1c1ccc(/C=C/C(=O)O)o1` (stereo not given): 73 to 75 °C; `O=C(c1c[nH]c2ccccc12)N1CCCC1`: 229 to 231 °C; `O=C(O)c1cccc(S(=O)(=O)N2CCCCCC2)c1`: 173 to 175 °C.
For `O=C(O)CCn1cnc2sccc2c1=O`, the melting point lay within 165 to 167 °C.
Next, `O=C(O)/C=C/c1ccc(OCc2ccccn2)cc1`: 210 to 212 °C.
Next, `O=C(O)CCc1ncc(-c2ccccc2Br)o1`: 180 to 182 °C; `Nc1ccc(Oc2ccccc2)cc1C(=O)O`: 138 to 140 °C.
On to `NC(=NO)c1cccc(Cn2cnc3ccccc32)c1`, for which the melting point was in the range of 226 to 228 °C.
`O=Cc1c(Cl)cccc1N1CCCC1` yielded a melting point of 69 to 71 °C.
Next, `CCOC(=O)COc1ccc(C(N)=S)cc1`: 126 to 128 °C; `O=C(O)c1ccccc1CSc1nc2ccccc2o1`: 175 to 177 °C; `Sc1nnc(-c2ccncc2)[nH]1`: 308 to 313 °C.
Next, `O=[N+]([O-])c1cn[nH]c1C1CC1`: 95 to 97 °C; `COc1cc(C=O)ccc1OCc1ccc(Br)cc1`: 74 to 76 °C.
Next, `O=C(O)c1c2c(nc3ccccc13)C(=Cc1cccc(Cl)c1Cl)CCC2`: 294 to 296 °C; `O=C(Nc1ccc(Cl)cc1)OCC(F)(F)F`: 69 to 71 °C; `CCNS(=O)(=O)c1ccc2c(c1)NCC2`: 112 to 114 °C.
As for `Cc1c(N)cccc1C(=O)Nc1ccccc1`, the melting point was in the range of 161 to 163 °C.
Compound `CCOC(=O)c1nc2cc(Cl)ncn2n1` yielded a melting point of 194 to 196 °C.
Compound `CCOC(=O)CN(C(=O)CCl)c1ccccc1` registered a melting point of 130 to 135 °C.
Next, `CCOC(=O)/C=C1/SCC(=O)N1Cc1cc(C(C)=O)ccc1OCC`: 175 to 177 °C; `Cn1cc(C=O)c(-c2ccccc2)n1`: 59 to 61 °C.
The compound `O=C(NC1CCCCC1)OCC(F)(F)F` returned a melting point of 78 to 82 °C.
Next, `Cc1cc(C(=O)O)c(C)n1-c1cccc(Cl)c1`: 160 to 162 °C; `Cn1cc(C(=O)NC2CCNCC2)cn1`: 204 to 206 °C.
Next, `Brc1cncc(-c2ncc[nH]2)c1`: 189 to 191 °C.
Next, `COC(=O)N1CCc2n[nH]c(=O)cc2C1`: 189 to 191 °C.
Compound `CCc1cc(N)c2ccccc2n1` gave a melting point of 152 to 154 °C.
The compound `Cc1cccc(-n2c(=O)[nH]c3cc(C(=O)O)ccc3c2=O)c1` yielded a melting point of 344 to 346 °C.
`CC1CC(C(=O)O)CC(=O)N1` (stereo not given): the melting point lay in the range of 159 to 161 °C.
For `NC(=O)c1cnn(-c2ccccc2)c1N`, the melting point was in the range of 167 to 170 °C.
The compound `Cc1oc(C(N)=O)cc1-c1csc(N)n1` registered a melting point of 224 to 226 °C.
Next, `CC1CC(C)CC2(C1)NC(=O)N(CC(=O)O)C2=O` (stereo not given): 259 to 261 °C; `COc1nc(C)cc(Cl)n1`: 59 to 61 °C; `Clc1ccc2c(n1)CCC2`: 69 to 71 °C.
As for `O=C(O)c1ccc(I)c(Cl)c1`, the melting point was 218 to 220 °C.
Next, `O=C(O)CN1CCCC1CO` (stereo not given): 146 to 148 °C; `Cc1sc2ncnc(N)c2c1C`: 257 to 259 °C.
Next, `NC(=O)CNC(=O)c1ccc(N)cc1`: 216 to 218 °C; `O=C(O)CSc1ncn[nH]1`: 154 to 156 °C.
Next, `Nc1ccc(S(=O)(=O)N2CCCCCC2)cc1`: 105 to 107 °C.
In turn, `COc1ccc(C)cc1-c1nnc(S)n1N` showed a melting point of 247 to 249 °C.
Compound `COC(=O)c1sc(N)nc1C1CC1` came in with a melting point of 184 to 186 °C.
`CCOC(=O)c1cnn2c1nc(Cl)c1ccccc12` returned a melting point of 129 to 131 °C.
The compound `CC(C)(C)OC(=O)N1CCCC(C(=O)O)C1` (stereo not given) had a melting point of 160 to 162 °C.
Next, `CC(C)(C)OC(=O)N1CCCC(CC#N)C1` (stereo not given): 48 to 50 °C.
Next, `Cc1n[nH]c(-c2ccccc2N)n1`: 153 to 155 °C; `CN(C(=O)c1ccccc1O)C1CCCC1`: 65 to 74 °C.
For `Cn1nnnc1SCC(=O)Nc1ccc(C(=O)O)cc1`, the melting point was in the range of 190 to 192 °C.
As to `CC1CC(C)CN(c2nnc(S)n2Cc2ccco2)C1` (stereo not given), the melting point fell in the range of 119 to 121 °C.
Take `CS(=O)(=O)Nc1cccc(Br)c1`: the melting point lay within 113 to 115 °C.
In turn, `Cc1sc2ccccc2c1S(=O)(=O)Cl` registered a melting point of 117 to 119 °C.
Compound `COc1ccc(C#N)cc1N` yielded a melting point of 74 to 76 °C.
Compound `Cc1noc2nc(-c3ccccc3Cl)cc(C(=O)O)c12` came in with a melting point of 248 to 250 °C.
Next, `CC(C)(C)OC(=O)Nc1ccc(CC(=O)N2CCNCC2)cc1`: 169 to 171 °C; `O=C(COc1ccc2c(c1)CCC2)c1ccc(Cl)c(Cl)c1`: 89 to 91 °C; `CCc1[nH]nc(C(=O)O)c1[N+](=O)[O-]`: 149 to 151 °C.
Next, `Cc1cc2cc(C(=O)O)oc2cc1C`: 269 to 271 °C; `N#Cc1cnoc1N`: 143 to 145 °C; `COC(=O)c1cc2c(C=O)ccc(OC)c2o1`: 171 to 173 °C.
On to `CC(C)(C)OC(=O)NC(C(=O)O)c1ccccc1` (stereo not given), for which the melting point was 113 to 115 °C.
`Nc1cccc(NC(=O)CN2CCCCCC2)c1` returned a melting point of 67 to 69 °C.
Compound `O=C(O)Cc1ccc(NS(=O)(=O)c2ccc(Cl)c(Cl)c2)cc1` registered a melting point of 174 to 176 °C.
Next, `COc1ccc(C(=O)O)cc1S(=O)(=O)N1CCCCC1C` (stereo not given): 175 to 180 °C; `CC(C)(C#N)N1CCN(C(C)(C)C#N)CC1`: 182 to 184 °C.
In the case of `NS(=O)(=O)c1ccc(Br)cn1`, the melting point fell in the range of 170 to 172 °C.
Next, `COC(=O)C1CCc2[nH]ncc2C1` (stereo not given): 79 to 81 °C; `Nc1ccc(CN2CCOC2=O)cc1`: 99 to 101 °C; `NC(=O)COc1ccc(C(=O)O)cc1`: 273 to 275 °C.
Turning to `c1ccc2c(c1)NCCS2`, the melting point fell in the range of 34 to 38 °C.
Next, `Cc1c(NC(=O)CSc2ccccc2C(=O)O)c(=O)n(-c2ccccc2)n1C`: 120 to 123 °C.
Turning to `Cc1csc(Sc2ccc(C(=O)O)cc2[N+](=O)[O-])n1`, the melting point fell in the range of 207 to 210 °C.
`NCCc1ccccc1O` displayed a melting point of 107 to 109 °C.
Next, `O=C1CN(S(=O)(=O)c2cccc([N+](=O)[O-])c2)CCN1`: 217 to 219 °C.
Next, `Cc1cc(Cl)c(CO)c(Cl)n1`: 81 to 83 °C; `CN(C)S(=O)(=O)c1ccccc1CNC(=O)CCl`: 87 to 89 °C; `Cn1c(Cl)nc2ccccc2c1=O`: 109 to 111 °C.
`CC(C)(C(=O)O)C(O)c1cccc(OCc2ccccc2)c1` (stereo not given) yielded a melting point of 125 to 127 °C.
Next, `S=C1NC2CCCCC2N1` (stereo not given): 134 to 136 °C; `O=C(CCl)c1ccc2c(c1)CCCN2C(=O)c1ccccc1`: 178 to 180 °C.
